Experimental data published in ChEMBL document CHEMBL1201862, “PubChem BioAssay data set” (2004).
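Method: 48-hour compound exposure of cells in 96-well plates, five concentrations, linear interpolation of endpoints. At the GI50, growth is halved.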 Activity calls are given as the source filed them. Cut-off read from the data, not from the text of the source: active = GI50 up to about 1.1 µM and inactive = higher.

Tests used:
Experiment in all cases: NCI anticancer screen, dose series, 48 h
[1] = system: EKVX
[2] = system: TK-10
[3] = system: HCT-116
[4] = system: MCF7
[5] = system: HL-60
[6] = system: U-251
[7] = system: MDA-MB-231
[8] = system: LOX IMVI
[9] = system: SK-MEL-28
[10] = system: SK-MEL-2
[11] = system: K562
[12] = system: MOLT-4
[13] = system: MDA-MB-435
[14] = system: SNB-75
[15] = system: OVCAR-3
[16] = system: IGROV-1
[17] = system: HCT-15
[18] = system: ACHN
[19] = system: HOP-92

| Structure (SMILES) | GI50 [1] | GI50 [2] | GI50 [3] | GI50 [4] | GI50 [5] | GI50 [6] | GI50 [7] | GI50 [8] | GI50 [9] | GI50 [10] | GI50 [11] | GI50 [12] | GI50 [13] | GI50 [14] | GI50 [15] | GI50 [16] | GI50 [17] [µM] | GI50 [18] | GI50 [19] |
| --- | --- | --- | --- | --- | --- | --- | --- | --- | --- | --- | --- | --- | --- | --- | --- | --- | --- | --- | --- |
| O=C(O)C(Cc1ccccc1)Cc1ccccc1 | > 100 µM (inactive) | > 100 µM (inactive) | > 100 µM (inactive) | > 100 µM (inactive) | > 100 µM (inactive) | > 100 µM (inactive) | > 100 µM (inactive) | > 100 µM (inactive) | > 100 µM (inactive) | > 100 µM (inactive) | > 100 µM (inactive) | > 100 µM (inactive) | > 100 µM (inactive) | > 100 µM (inactive) | > 100 µM (inactive) | > 100 µM (inactive) | > 100 | > 100 µM (inactive) | – |
| Cc1ccc(OCC(=O)N2N=C(c3ccccc3)CC2(O)c2ccccc2)cc1 (stereo unspecified) | – | > 100 µM (inactive) | > 100 µM (inactive) | – | 27.8 µM (inactive) | 13 µM (inactive) | – | 99.5 µM (inactive) | 80 µM (inactive) | > 100 µM (inactive) | 20.2 µM (inactive) | 7.89 µM (inactive) | – | 55.3 µM (inactive) | 33.3 µM (inactive) | 39.4 µM (inactive) | > 100 | > 100 µM (inactive) | 55.2 µM (inactive) |
| O=C(NCCOC(=O)CCCCCCCCC(=O)OCCNC(=O)NC(=O)c1cn(Cc2ccccc2)c(=O)[nH]c1=O)NC(=O)c1cn(Cc2ccccc2)c(=O)[nH]c1=O | > 100 µM (inactive) | > 100 µM (inactive) | > 100 µM (inactive) | – | > 100 µM (inactive) | > 100 µM (inactive) | – | > 100 µM (inactive) | > 100 µM (inactive) | > 100 µM (inactive) | > 100 µM (inactive) | > 100 µM (inactive) | – | > 100 µM (inactive) | > 100 µM (inactive) | > 100 µM (inactive) | > 100 | > 100 µM (inactive) | – |
| CC1C(c2ccc(Cl)cc2)c2cc3c(cc2OC1N1CCOCC1)OCO3 (stereo unspecified) | > 100 µM (inactive) | > 100 µM (inactive) | 95.1 µM (inactive) | > 100 µM (inactive) | – | – | – | > 100 µM (inactive) | > 100 µM (inactive) | 69.7 µM (inactive) | > 100 µM (inactive) | > 100 µM (inactive) | 95.1 µM (inactive) | 44.1 µM (inactive) | 85.3 µM (inactive) | > 100 µM (inactive) | > 100 | 35.3 µM (inactive) | – |
| O=C(O)c1cccc(CN2CCCCC2)c1 | > 100 µM (inactive) | > 100 µM (inactive) | > 100 µM (inactive) | > 100 µM (inactive) | – | > 100 µM (inactive) | > 100 µM (inactive) | > 100 µM (inactive) | > 100 µM (inactive) | > 100 µM (inactive) | > 100 µM (inactive) | > 100 µM (inactive) | > 100 µM (inactive) | – | > 100 µM (inactive) | > 100 µM (inactive) | > 100 | > 100 µM (inactive) | – |
| N#Cc1ccccc1NC(=O)C(=O)C(C(=O)c1ccccc1-c1ccccc1)C1OC(=O)c2ccccc21 (stereo unspecified) | 18.5 µM (inactive) | > 10 µM (inactive) | 11 µM (inactive) | – | 14 µM (inactive) | 11.7 µM (inactive) | – | 15 µM (inactive) | 18.2 µM (inactive) | 16 µM (inactive) | 21.7 µM (inactive) | 13.9 µM (inactive) | – | 14.6 µM (inactive) | 15.8 µM (inactive) | 23.5 µM (inactive) | – | 53.6 µM (inactive) | 20 µM (inactive) |
| O=C(OC(=C(c1ccccc1)c1ccccc1)N1CCCC1=S)C(c1ccccc1)c1ccccc1 | > 10 µM (inactive) | > 10 µM (inactive) | 4.12 µM (inactive) | 7.67 µM (inactive) | > 10 µM (inactive) | 6.32 µM (inactive) | 7.82 µM (inactive) | 3.17 µM (inactive) | > 10 µM (inactive) | > 10 µM (inactive) | 3.88 µM (inactive) | 5.01 µM (inactive) | > 10 µM (inactive) | 4.91 µM (inactive) | 7.6 µM (inactive) | > 10 µM (inactive) | 4.13 | 5.07 µM (inactive) | – |
| C[n+]1c2ccccc2c(/C=N\NS(=O)(=O)c2ccc(Cl)cc2)c2ccccc21 | > 100 µM (inactive) | 74 µM (inactive) | 33.7 µM (inactive) | – | 30.1 µM (inactive) | 45.8 µM (inactive) | – | 16.8 µM (inactive) | 94.8 µM (inactive) | 46.7 µM (inactive) | 17.7 µM (inactive) | 32.9 µM (inactive) | – | 39.4 µM (inactive) | 41.8 µM (inactive) | 43 µM (inactive) | 35.9 | 68.2 µM (inactive) | 48.8 µM (inactive) |
| S=C1/C(=N/c2ccccc2)N(c2ccccc2)/C(=N\c2ccccn2)N1c1ccccc1 | 13.5 µM (inactive) | 15.5 µM (inactive) | 14.2 µM (inactive) | – | > 100 µM (inactive) | 15.8 µM (inactive) | 16.6 µM (inactive) | 6.61 µM (inactive) | 16.8 µM (inactive) | 11.9 µM (inactive) | > 100 µM (inactive) | > 100 µM (inactive) | 15.2 µM (inactive) | 14.7 µM (inactive) | – | 13.3 µM (inactive) | 8.18 | 4.32 µM (inactive) | 13 µM (inactive) |
| CC1(C)OC(=O)[C@@](C)([C@H](O)c2ccccc2)O1 | > 100 µM (inactive) | > 100 µM (inactive) | 93.8 µM (inactive) | – | 32.6 µM (inactive) | > 100 µM (inactive) | – | – | > 10 µM (inactive) | > 100 µM (inactive) | 67.9 µM (inactive) | 45.1 µM (inactive) | – | 65 µM (inactive) | 35.8 µM (inactive) | 94.6 µM (inactive) | – | > 100 µM (inactive) | 28.6 µM (inactive) |
| CN(C(=O)Cc1cc(Cl)c(Cl)cc1NC(=O)CCCN)[C@H]1CCCC[C@@H]1N1CCCC1 | 45.1 µM (inactive) | 57.8 µM (inactive) | 29.9 µM (inactive) | 20.1 µM (inactive) | 22.4 µM (inactive) | 19.3 µM (inactive) | 28.3 µM (inactive) | 18.6 µM (inactive) | 17.1 µM (inactive) | 21.9 µM (inactive) | > 100 µM (inactive) | 60.8 µM (inactive) | 16.4 µM (inactive) | – | > 100 µM (inactive) | > 100 µM (inactive) | > 100 | > 100 µM (inactive) | – |
| CCN(CC)CCO/N=C1\CC[C@H]2[C@@H]3CC=C4C[C@@H](O)CC[C@]4(C)[C@H]3CC[C@]12C | 35 µM (inactive) | 27.6 µM (inactive) | 15.6 µM (inactive) | 16.6 µM (inactive) | 9.77 µM (inactive) | 14.4 µM (inactive) | 19.7 µM (inactive) | 16.5 µM (inactive) | 15.7 µM (inactive) | 23.3 µM (inactive) | 7.98 µM (inactive) | 15.7 µM (inactive) | 17.3 µM (inactive) | 26.4 µM (inactive) | 19.5 µM (inactive) | 31.8 µM (inactive) | 10.5 | 35.8 µM (inactive) | – |
| COc1cc(N(CCC#N)CCC#N)ccc1C(/N=N/c1ccccc1C)=N\NC(=O)c1ccc(C)cc1 | 28.4 µM (inactive) | > 100 µM (inactive) | 36.1 µM (inactive) | – | 2.15 µM (inactive) | 42.3 µM (inactive) | 25.5 µM (inactive) | 40.8 µM (inactive) | > 100 µM (inactive) | 43.9 µM (inactive) | 29.8 µM (inactive) | 28 µM (inactive) | 29.3 µM (inactive) | – | 24.2 µM (inactive) | 75 µM (inactive) | > 100 | – | 53.8 µM (inactive) |
| COc1ccc2c(c1)CC1Cc3cc(OC)c(OC)cc3CN1CC2 (stereo unspecified) | 32.8 µM (inactive) | 22.2 µM (inactive) | 23.5 µM (inactive) | – | 11.1 µM (inactive) | 49.5 µM (inactive) | 42.6 µM (inactive) | 23.5 µM (inactive) | 42.8 µM (inactive) | 70.1 µM (inactive) | 17.5 µM (inactive) | 24 µM (inactive) | 37.9 µM (inactive) | 29.7 µM (inactive) | 72.4 µM (inactive) | 17.3 µM (inactive) | 44.7 | 21.5 µM (inactive) | 11.6 µM (inactive) |
| C=C1CC(C#N)(C#N)[C@@H]2CC3CCCC3[C@H]12.C=C1CC(C#N)(C#N)[C@H]2C3CCCC3C[C@@H]12 (stereo partly specified) | 24.2 µM (inactive) | 35.1 µM (inactive) | 4.99 µM (inactive) | 16.3 µM (inactive) | 20.5 µM (inactive) | 20 µM (inactive) | 22 µM (inactive) | – | 21.2 µM (inactive) | – | 16.8 µM (inactive) | 13.1 µM (inactive) | 19.3 µM (inactive) | – | 19.3 µM (inactive) | 27.9 µM (inactive) | 15.9 | 24.8 µM (inactive) | 11.3 µM (inactive) |
| CCC(=O)OC1CCn2c1nc1c2C(=O)C(C)=C(NC(C)=O)C1=O (stereo unspecified) | 2.03 µM (inactive) | 5.12 µM (inactive) | 1.67 µM (inactive) | – | 0.796 µM (active) | 2.08 µM (inactive) | – | 1.37 µM (inactive) | 2.22 µM (inactive) | 1.89 µM (inactive) | 1.87 µM (inactive) | 1.41 µM (inactive) | – | 5.01 µM (inactive) | 0.236 µM (active) | 2.19 µM (inactive) | – | 3.59 µM (inactive) | 1.69 µM (inactive) |
| COC1=C(Br)[C@H](O)[C@@]2(C=C1Br)CC(C(=O)NCCCOc1c(Br)cc(C(O)CNC(C)=O)cc1Br)=NO2 (stereo partly specified) [APLYSINAMISINE III] | – | > 10 µM (inactive) | > 10 µM (inactive) | 6.18 µM (inactive) | 2.19 µM (inactive) | > 10 µM (inactive) | > 10 µM (inactive) | > 10 µM (inactive) | > 10 µM (inactive) | 8.79 µM (inactive) | 2.24 µM (inactive) | 7.73 µM (inactive) | 2.18 µM (inactive) | 2.79 µM (inactive) | > 10 µM (inactive) | > 10 µM (inactive) | > 10 | > 10 µM (inactive) | – |
